Structures are written as SMILES.

What all share (assay type): in vivo
The subject of series [1] is transplanted rice plant. Briefly: Test Example 1: effect on crop, application before weed generation in submerged conditions (symbol a). The following applies: application herbicide amount 320 g/ha. In a few lines:
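Alluvial soil pots flooded to 4 cm water, sown with Echinochloa oryzacola, Scirpus juncoides and Monochoria vaginalis, then transplanted with 2.5 leaf stage rice seedlings; pre-emergence application. Greenhouse 25° C. to 30° C.; scored 0–5 by herbicidal ratio 3 weeks after application.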

The test system of series [2] is Abutilon theophrasti. Briefly: Test Example 5: herbicidal effect by foliage application, plastic box (symbol M). To be noted: 320 g/ha, 3 weeks after application. The essentials: (§1)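 After sowing into sterilized diluvial soil and growing two weeks under glass at 25° C. to 30° C., seedlings receive a uniform foliar spray of diluted emulsion. Damage is judged visually three weeks on.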

The subject of series [3] is Stellaria media. The series is described as follows: Test Example 5: herbicidal effect by foliage application, plastic box (symbol P). The following applies: 320 g/ha, 3 weeks after application. In a few lines: as §1
The subject of series [4] is Echinochloa crus-galli var. crus-galli. The series is described as follows: Test Example 4: herbicidal effect by soil treatment (symbol H). The essentials: (§2)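 Seeds were sown in sterilized diluvial soil, covered with about 1.5 cm of soil, and the soil surface was sprayed with a water-diluted emulsion of the compound at a predetermined rate. Plants grew in a greenhouse at 25° C. to 30° C.; effects were scored visually 3 weeks after application.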

Series [5] relates to beet. Briefly: Test Example 4: effect on crop by soil treatment (symbol f). The following applies: for f: beet, effect grade on crop: 320 g/ha. The essentials:
(§3)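 Steps: fill box with sterilized diluvial soil; sow seed spot-like; cover with ~1.5 cm soil; grow in greenhouse (25° C. to 30° C.).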

Series [6] deals with Galium spurium. Briefly: Test Example 4: herbicidal effect by soil treatment (symbol Q). In a few lines: as §2
Series [7] has as its system Avena fatua. The series is described as follows: Test Example 5: herbicidal effect by foliage application, plastic box (symbol I). To be noted: 320 g/ha, 3 weeks after application. The essentials: as §1
Series [8] deals with Monochoria vaginalis. The series is described as follows: Test Example 2: herbicidal activity, application during weed generation in submerged conditions (symbol C). The following applies: Table 23; application herbicide amount 320 g/ha; grade 0-5 by criteria of Test Example 1. In a few lines:
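Treatment timing was the one- to two-leaf stage, with diluted emulsifiable compound dropped onto the paddy water (depth 4 cm) over alluvial soil. All three species grew from a mixed sowing in a 25° C. to 30° C. greenhouse. Injury was judged by eye 3 weeks on.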

In series [9] the test system is Digitaria ciliaris. The series is described as follows: Test Example 5: herbicidal effect by foliage application, plastic box (symbol F). The following applies: 320 g/ha, 3 weeks after application. The essentials:
as §1

Series [10] has as its system Stellaria media. Briefly: Test Example 4: herbicidal effect by soil treatment (symbol P). In a few lines: as §2
Series [11] concerns rice. The series is described as follows: Test Example 4: effect on crop by soil treatment (symbol b). To be noted: for b: directly sowed rice plant, effect grade on crop: 320 g/ha. In a few lines:
as §3

The test system of series [12] is Amaranthus retroflexus. Briefly: Test Example 4: herbicidal effect by soil treatment (symbol N). The essentials:
as §2

Series [13] has as its system rice plant. The series is described as follows: Test Example 5: effect on crop by foliage application, plastic box (symbol b). The following applies: 320 g/ha, 3 weeks after application. The essentials: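 Plants were raised from seed in a greenhouse (25° C. to 30° C.) after sowing in a plastic box of sterilized diluvial soil.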
Series [14] deals with Setaria viridis. The series is described as follows: Test Example 5: herbicidal effect by foliage application, plastic box (symbol G). The following applies: 320 g/ha, 3 weeks after application. In a few lines:
as §1

Setting [15] is: application herbicide amount 320 g/ha.

As to `CCC(CC1CC(O)=C(c2c(C)cc(Br)cc2OC)C1=O)=NOC` (mixture of isomers) [13-001], the “a (transplanted rice plant) effect on crop grade” value in series [1] is 5 (Herbicidal ratio of 90% or more (almost completely withered)). The “M: Abutilon theophrasti, herbicidal effect grade” value in series [2] is 1 (Herbicidal ratio of 5% or higher and lower than 20%). Further, the “P: Stellaria media, herbicidal effect grade” value in series [3] and in series [10] (setting [15]) was 0 (Herbicidal ratio of 5% or lower (almost no effect)) each time. For the same molecule, in [4] (setting [15]), the “H: Echinochloa crus-galli var. crus-galli, herbicidal effect grade” value is recorded as 5 (Herbicidal ratio of 90% or more (almost completely withered)). Also, the “f: beet, effect on crop grade” value in [5] (setting [15]) is listed as 0 (Herbicidal ratio of 5% or lower (almost no effect)). In [6] (setting [15]), the “Q: Galium spurium, herbicidal effect grade” value is reported as 0 (Herbicidal ratio of 5% or lower (almost no effect)). The “I: Avena fatua, herbicidal effect grade” value in series [7] is listed as 5 (Herbicidal ratio of 90% or more (almost completely withered)). Moreover, the “Herbicidal effect grade, C: Monochoria vaginalis” value (“Herbicidal effect grade, C” for short) in series [8] was 0 (Herbicidal ratio of 5% or lower (almost no effect)). Further, in series [9], the “F: Digitaria ciliaris, herbicidal effect grade” value is 5 (Herbicidal ratio of 90% or more (almost completely withered)). The “b: directly sowed rice plant, effect on crop grade” value in series [11] (setting [15]) and in series [13] was 5 (Herbicidal ratio of 90% or more (almost completely withered)) each time. In addition, the “N: Amaranthus retroflexus, herbicidal effect grade” value in series [12] (setting [15]) was 0 (Herbicidal ratio of 5% or lower (almost no effect)). Moreover, the “G: Setaria viridis, herbicidal effect grade” value in series [14] is on record as 5 (Herbicidal ratio of 90% or more (almost completely withered)).

Consider `CC(CC1CC(O)=C(c2c(C)cc(C)cc2C)C1=O)=NOCc1cccc(Cl)c1` (centres unmarked) [1-114], for which, in [1], the “Effect grade on crop, a: transplanted rice plant” value is listed as 5 (Herbicidal ratio of 90% or more (almost completely withered)). Also, the “M: Abutilon theophrasti, herbicidal effect (criteria 0-5)” value in [2] is 1 (Herbicidal ratio of 5% or higher and lower than 20%). The “P: Stellaria media, herbicidal effect (criteria 0-5)” value in series [3] is 3 (Herbicidal ratio of 40% or higher and lower than 70%). Moreover, the “H: Echinochloa crus-galli var. crus-galli, herbicidal effect grade” value in [4] (320 g/ha) is recorded as 0 (Herbicidal ratio of 5% or lower (almost no effect)). The “f: beet, effect grade on crop” value in series [5] is reported as 0 (Herbicidal ratio of 5% or lower (almost no effect)). Also, the “Q: Galium spurium, herbicidal effect grade” value in series [6] (320 g/ha) was 0 (Herbicidal ratio of 5% or lower (almost no effect)). In addition, the “I: Avena fatua, herbicidal effect (criteria 0-5)” value in series [7] is reported as 5 (Herbicidal ratio of 90% or more (almost completely withered)). Further, the “Herbicidal effect grade, C” value in [8] is 4 (Herbicidal ratio of 70% or higher and lower than 90%). Moreover, the “F: Digitaria ciliaris, herbicidal effect (criteria 0-5)” value in series [9] is 5 (Herbicidal ratio of 90% or more (almost completely withered)). Besides, in [10] (320 g/ha), the “P: Stellaria media, herbicidal effect grade” value was 0 (Herbicidal ratio of 5% or lower (almost no effect)). Also, the “b: directly sowed rice plant, effect grade on crop” value in series [11] is 3 (Herbicidal ratio of 40% or higher and lower than 70%). Besides, the “N: Amaranthus retroflexus, herbicidal effect grade” value in series [12] (320 g/ha) is 0 (Herbicidal ratio of 5% or lower (almost no effect)). In [13], the “b: directly sowed rice plant, effect on crop (criteria 0-5)” value is given as 5 (Herbicidal ratio of 90% or more (almost completely withered)). Moreover, the “G: Setaria viridis, herbicidal effect (criteria 0-5)” value in series [14] is on record as 5 (Herbicidal ratio of 90% or more (almost completely withered)).

`CC(CC1CC(OC(=O)COc2ccccc2)=C(c2c(C)cc(-c3ccc(Cl)cc3)cc2C)C1=O)=NOCC(F)(F)F` (mixture of isomers) [9-027]: the “a (transplanted rice plant) effect on crop grade” value in series [1] was 5 (Herbicidal ratio of 90% or more (almost completely withered)). Moreover, the “M: Abutilon theophrasti, herbicidal effect grade” value in series [2] is 0 (Herbicidal ratio of 5% or lower (almost no effect)). The “P: Stellaria media, herbicidal effect grade” value in series [3] is 3 (Herbicidal ratio of 40% or higher and lower than 70%). Also, the “Herbicidal effect grade, H: Echinochloa crus-galli var. crus-galli” value in [4] (setting [15]) was 5 (Herbicidal ratio of 90% or more (almost completely withered)). The “Effect on crop grade, f: beet” value in [5] (setting [15]) is listed as 0 (Herbicidal ratio of 5% or lower (almost no effect)). The “Herbicidal effect grade, Q: Galium spurium” value in series [6] (setting [15]) is listed as 0 (Herbicidal ratio of 5% or lower (almost no effect)). In series [7], the “I: Avena fatua, herbicidal effect grade” value is listed as 5 (Herbicidal ratio of 90% or more (almost completely withered)). In addition, in [8], the “Herbicidal effect grade, C” value is reported as 0 (Herbicidal ratio of 5% or lower (almost no effect)). Further, in series [9], the “F: Digitaria ciliaris, herbicidal effect grade” value is listed as 5 (Herbicidal ratio of 90% or more (almost completely withered)). Moreover, the “Herbicidal effect grade, P: Stellaria media” value in series [10] (setting [15]) is 3 (Herbicidal ratio of 40% or higher and lower than 70%). Also, in series [11] (setting [15]), the “Effect on crop grade, b: directly sowed rice plant” value is 5 (Herbicidal ratio of 90% or more (almost completely withered)). Also, in series [12] (setting [15]), the “Herbicidal effect grade, N: Amaranthus retroflexus” value is 3 (Herbicidal ratio of 40% or higher and lower than 70%). For the same molecule, in [13], the “b: directly sowed rice plant, effect on crop grade” value is reported as 5 (Herbicidal ratio of 90% or more (almost completely withered)). In series [14], the “G: Setaria viridis, herbicidal effect grade” value was 5 (Herbicidal ratio of 90% or more (almost completely withered)).

Regarding `CC(CC1CC(O)=C(c2c(C)cc(C)cc2C)C1=O)=NOCCS(C)(=O)=O` (centres unmarked) [1-110], the “Effect grade on crop, a: transplanted rice plant” value in series [1] is reported as 5 (Herbicidal ratio of 90% or more (almost completely withered)). The “M: Abutilon theophrasti, herbicidal effect (criteria 0-5)” value in [2] was 0 (Herbicidal ratio of 5% or lower (almost no effect)). Also, the “P: Stellaria media, herbicidal effect (criteria 0-5)” value in series [3] is 3 (Herbicidal ratio of 40% or higher and lower than 70%). Moreover, the “H: Echinochloa crus-galli var. crus-galli, herbicidal effect grade” value in series [4] (320 g/ha) is recorded as 5 (Herbicidal ratio of 90% or more (almost completely withered)). Further, the “f: beet, effect grade on crop” value in series [5] is 0 (Herbicidal ratio of 5% or lower (almost no effect)). The “Q: Galium spurium, herbicidal effect grade” value in [6] (320 g/ha) is 0 (Herbicidal ratio of 5% or lower (almost no effect)). Further, the “I: Avena fatua, herbicidal effect (criteria 0-5)” value in series [7] is 5 (Herbicidal ratio of 90% or more (almost completely withered)). For the same molecule, the “Herbicidal effect grade, C” value in series [8] was 0 (Herbicidal ratio of 5% or lower (almost no effect)). In addition, in series [9], the “F: Digitaria ciliaris, herbicidal effect (criteria 0-5)” value is reported as 5 (Herbicidal ratio of 90% or more (almost completely withered)). Further, the “P: Stellaria media, herbicidal effect grade” value in series [10] (320 g/ha) is listed as 0 (Herbicidal ratio of 5% or lower (almost no effect)). Moreover, in series [11], the “b: directly sowed rice plant, effect grade on crop” value was 5 (Herbicidal ratio of 90% or more (almost completely withered)). Also, in series [12] (320 g/ha), the “N: Amaranthus retroflexus, herbicidal effect grade” value is on record as 0 (Herbicidal ratio of 5% or lower (almost no effect)). Further, in series [13], the “b: directly sowed rice plant, effect on crop (criteria 0-5)” value is listed as 5 (Herbicidal ratio of 90% or more (almost completely withered)). For the same molecule, the “G: Setaria viridis, herbicidal effect (criteria 0-5)” value in [14] is given as 5 (Herbicidal ratio of 90% or more (almost completely withered)).
